“Also recorded” adds a separate entry of the source.
Experiments:
[1] = tested on: Tau protein; assay: ATR-FTIR sensor drug-screening assay: Tau protein captured from human CSF on antibody Tau-5 terminated germanium, amide I band monitored; type: biochemical; conditions: Tau extracted from CSF; methylene blue 50 μM, berberine 100 μM
Source text: The present invention is based on the detection of secondary structural changes induced by the potential drug by means of vibrational spectroscopy. […] Instead of a 70V (Bruker) we employed an 80V FTIR spectrometer (Bruker) to improve the signal to noise ratio of the measurements. As internal reflection element germanium crystal were chemically modified with NHS-silanes, which function as anchors for the covalent attachment of the desired antibodies. After blocking the surface with casein the surface is ready for capturing of the target protein (Tau or Aβ1-42). The Tau protein was directly extracted out of human CSF. […] The target protein was analyzed in the presence of the potential drug and the effect was monitored by the change in the amide I band. […]
IR-measurements were performed on a Vertex 80V spectrometer (Bruker Optics GmbH, Ettlingen, Germany) with liquid nitrogen cooled mercury-cadmium-telluride (MCT) detector. Double-sided interferograms were recorded in forward-backward interferometer movement at a 80 kHz data rate with a spectral resolution of 2 cm^−1, Blackman-Harris-3-Term-apodisation, Mertz-phase correction and 4 times zero filling. Reference spectra were recorded as an average of 1000, sample spectra of 200 interferograms. […]

[2] = biological target: T1, Aβ1-42 (Homo sapiens, UniProt P05067); assay: ATR-FTIR sensor drug-screening assay: synthetic Aβ1-42 captured on antibody A8978 terminated germanium, auto-induced fibrilization monitored by amide I band; type: biochemical
T1 construct: Amyloid-beta-Protein fragment 1-42; purchased Sigma-Aldrich A9810; host or cells: synthetic peptide
Source text: The present invention is based on the detection of secondary structural changes induced by the potential drug by means of vibrational spectroscopy. […] Instead of a 70V (Bruker) we employed an 80V FTIR spectrometer (Bruker) to improve the signal to noise ratio of the measurements. As internal reflection element germanium crystal were chemically modified with NHS-silanes, which function as anchors for the covalent attachment of the desired antibodies. After blocking the surface with casein the surface is ready for capturing of the target protein (Tau or Aβ1-42). […] The target protein was analyzed in the presence of the potential drug and the effect was monitored by the change in the amide I band. […] Another example is the study of the second important biomarker Aβ1-42. Since the developed sensor is universal, the antibody A8978 against the epitope 13-28 of Aβ1-42 could be applied for the analysis of the potential drug berberine. To monitor a potential effect of berberine the surface was loaded with synthetic Aβ1-42.
The human Aβ-peptide was purchased from Sigma-Aldrich (A9810, Amyloid-beta-Protein fragment 1-42).
IR-measurements were performed on a Vertex 80V spectrometer (Bruker Optics GmbH, Ettlingen, Germany) with liquid nitrogen cooled mercury-cadmium-telluride (MCT) detector. Double-sided interferograms were recorded in forward-backward interferometer movement at a 80 kHz data rate with a spectral resolution of 2 cm^−1, Blackman-Harris-3-Term-apodisation, Mertz-phase correction and 4 times zero filling. Reference spectra were recorded as an average of 1000, sample spectra of 200 interferograms. Recording reference single channel spectra of the blank sensor, sensor with 2-propanol, the silanized surface, the buffers, antibody or casein coated surface in equilibrium states enabled high sensitivity difference spectroscopy based on Lambert-Beer law (E=−log(I/I0). The absorbance of the state change is the negative decadic logarithm of the intensity relation before and after the change.
The antibody A8979 (Sigma-aldrich) was employed for capturing the Aβ-peptide (Nabers et al., Anal. Chem. 88(5):2755-62 doi:10.1021/acs.analchem.5b04286 (2016)). The Aβ-peptide (Aβ1-42, synthetic, Sigma-aldrich, Taufkrichen, Germany) was monomerized by incubation with hexafluoro-2-propanol as described elsewhere (Nabers et al., J. Biophotonics 9(3):224-34 doi:10.1002/jbio.201400145 (2016)).

[3] = tested on: memory function; conditions: rat models; cited from earlier work

T1 sequence (P05067 672-713 limits assumed): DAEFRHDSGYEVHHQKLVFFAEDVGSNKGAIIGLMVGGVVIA

shoulder of amide I band (β-sheet enriched isoforms) of Aβ1-42 in presence of drug ([2]; 100 μM berberine): 1634 cm⁻¹
shift of the amide I maximum of Aβ1-42 versus no drug ([2]; 100 μM berberine, 18 h): 25 cm⁻¹
amide I maximum of Aβ1-42 in presence of drug ([2]; 100 μM berberine, 18 h total, without drug 1634 cm^−1): 1659 cm⁻¹
Structure (SMILES): COc1ccc2cc3[n+](cc2c1OC)CCc1cc2c(cc1-3)OCO2 [berberine, berberine chloride]
effect on secondary structure distribution of Tau protein [1]: did not change the secondary structure distribution; also recorded: no significant effect on the Tau protein
effect on secondary structure distribution / fibrilization of Aβ1-42 ([2]; synthetic Aβ1-42, drug 100 μM, same conditions for both drugs): shifts the distribution mainly to α-helix; also recorded: directly decelerates the aggregation process of Aβ1-42; also recorded: decelerates the auto-induced fibrilization of Aβ1-42
effect on memory function [3]: positive effect on the memory function

— patent publication US11592451B2, “Method for the preselection of drugs for protein misfolding diseases” (betaSENSE GmbH, priority 2016, dated 2023)
